Where two headings read alike, the source gives them in different places.
Experiments:
[1] = test system: ZIKV; design: method as in PMID 34206327; conditions: Huh7 cells, cited from earlier work; for EC50: read-out: Titer Reduction Assay EC50
[2] = test system: Huh7 cells; design: method as in PMID 34206327; conditions: cited from earlier work
[3] = test system: luciferase reporter ZIKV; experiment: luciferase-based ZIKV reporter assay in Huh7 cells; format: cell-based; conditions: Zika virus; for inhibition at 10 µM: Huh-7, 72 h, read-out: ZIKV Reporter Assay Inhibition (%) at 10 µM
Description: (§1) In the current study, we continued to use our previously reported luciferase-based ZIKV reporter assay as a primary antiviral screening, by which newly synthesized compounds were tested (at 10 µM) along with NITD008 (Figure 1, at 1 µM), a flavivirus RNA-dependent RNA polymerase (RdRp) inhibitor, and NSC 12155 (Figure 1, at 10 µM), a flavivirus NS5 methyltransferase (MTase) inhibitor, as reference compounds (Table 1). […] For active compounds (>60% titer-reduction), dose-response experiments were performed to determine EC50 (half maximal effective concentration, a concentration that is needed to cause half of the maximum possible pharmacological effect) and CC50 (half cytotoxic concentration, a concentration that is required to reduce cell viability by 50%) values. For selected compounds, EC50 values in the reporter assay were also measured.
(§2) The ZIKV reporter assay and titer-reduction assay were performed as previously reported. Briefly, Huh7 cells (1.5 × 10^4) were seeded in a 96-well plate and inoculated with a luciferase reporter ZIKV (MOI=0.2). After two hours, the cells were treated with medium containing the compound (10 µM). After 3 days post-infection, the cells were lysed, the Nanoluc signal was detected using the Nano-Glo® luciferase assay (Promega), then measured using a Neo 2 plate reader (BioTek, Winooski, VT, USA). For titer-reduction assays, 1.5 × 10^5 Huh7 cell were seeded in a 24-well plate. Next day, the cells were inoculated with ZIKV for two hours. The inoculum was replaced with compound-containing medium (8.5 µM) and incubated for 3 days. Supernatants were collected and viral titers were estimated by plaque assay.

[4] = test system: ZIKV; experiment: ZIKV titer reduction assay (plaque assay of supernatants) in Huh7 cells; format: cell-based; conditions: Zika virus; for inhibition at 8.5 µM: Huh-7, 72 h, read-out: Titer Reduction Assay % at 8.5 µM
Description: as §1, §2

[5] = Cell viability (CC50) assay, MTS-based; conditions: human; for viability at 3 days, 10 µM: 10 µM compound, Huh7 cells, read-out: ZIKV Reporter Assay Viability (%) at 10 µM
Description: as §1
The cell viability assay was performed in Huh7 cells as previously reported. Briefly, non-infected Huh7 cells were treated with the testing compounds for 3 days. Viability was measured by absorbance at […] using the MTS-based tetrazolium reduction CellTiter 96 Aqueous Non-Radioactive cell proliferation assay (Promega).

[6] = test system: luciferase reporter ZIKV; conditions: Huh7 cells, cited from earlier work
[7] = 8.5 µM compound, Huh7 cells, 3 days
[8] = Huh-7, Huh7 cells, read-out: Titer Reduction Assay EC50
[9] = non-infected Huh7 cells, 3 days, read-out: CC50

SMILES	inhibition at 10 µM [3]	inhibition at 8.5 µM [4, 7]	viability at 3 days, 10 µM ([5]; 3 days)	other results
O=[N+]([O-])c1ccc(Cn2ccc3c(NCc4cccc(Cl)c4)ncnc32)cc1 [Compound 1]	–	–	–	EC50 [1]: 5.2 µM; CC50 [2]: 20 µM
Nc1ncnc2c1c(COc1ccccc1)cn2Cc1ccc([N+](=O)[O-])cc1 [Compound 5, 7-(4-Nitrobenzyl)-5-(phenoxymethyl)-7H-pyrrolo[2,3-d]pyrimidin-4-amine]	62%	94%	82%	EC50 [4, 8]: 4.3 µM; CC50 at 3 days [5, 9]: 58 µM
Nc1ncnc2c1c(COc1ccccc1)nn2Cc1ccc([N+](=O)[O-])cc1 [Compound 6, 1-(4-Nitrobenzyl)-3-(phenoxymethyl)-1H-pyrazolo[3,4-d]pyrimidin-4-amine]	65%	65%	82%	EC50 [4, 8]: 5.1 µM; CC50 at 3 days [5, 9]: 39 µM
Nc1ncnc2c1c(COc1ccccc1)nn2Cc1ccc(C(F)(F)F)cc1 [Compound 13, 3-(Phenoxymethyl)-1-(4-(trifluoromethyl)benzyl)-1H-pyrazolo[3,4-d]pyrimidin-4-amine]	68%	73%	86%	EC50 [4, 8]: 6.5 µM; CC50 at 3 days [5, 9]: > 100 µM
CS(=O)(=O)c1ccc(Cn2nc(COc3ccccc3)c3c(N)ncnc32)cc1 [Compound 14, 1-(4-(Methylsulfonyl)Benzyl)-3-(phenoxymethyl)-1H-pyrazolo[3,4-d]pyrimidin-4-amine]	58%	52%	93%	–
NC(=O)c1ccc(Cn2nc(COc3ccccc3)c3c(N)ncnc32)cc1 [Compound 19, 4-((4-Amino-3-(phenoxymethyl)-1H-pyrazolo[3,4-d]pyrimidin-1-yl)methyl)benzamide]	63%	22%	77%	–
Nc1ncnc2c1c(COc1ccccc1)nn2Cc1ccc(Cl)nc1 [Compound 21, 1-((6-Chloropyridin-3-yl)methyl)-3-(phenoxymethyl)-1H-pyrazolo[3,4-d]pyrimidin-4-amine]	82%	–	64%	EC50 ([3]; Huh-7, read-out: ZIKV Reporter Assay EC50): 3.5 µM; inhibition at 8.5 µM [4]: 74%; EC50 ([4]; Huh-7, read-out: Titer Reduction Assay EC50): 5.2 µM; CC50 at 3 days [5]: 25 µM
Nc1ccc(Cn2nc(COc3ccccc3)c3c(N)ncnc32)cn1 [Compound 23, 1-((6-Aminopyridin-3-yl)methyl)-3-(phenoxymethyl)-1H-pyrazolo[3,4-d]pyrimidin-4-amine]	49%	20%	82%	–
CC(C)(C)OC(=O)Nc1ccc(Cn2nc(COc3ccccc3)c3c(N)ncnc32)cn1 [Compound 25, Tert-Butyl (5-((4-Amino-3-(phenoxymethyl)-1H-pyrazolo[3,4-d]pyrimidin-1-yl)methyl)pyridin-2-yl)carbamate]	68%	–	40%	–
Cc1ccccc1OCc1nn(Cc2ccc([N+](=O)[O-])cc2)c2ncnc(N)c12 [Compound 26, 1-(4-Nitrobenzyl)-3-((o-tolyloxy)methyl)-1H-pyrazolo[3,4-d]pyrimidin-4-amine]	60%	–	77%	–
Cc1cccc(OCc2nn(Cc3ccc([N+](=O)[O-])cc3)c3ncnc(N)c23)c1 [Compound 27, 1-(4-Nitrobenzyl)-3-((m-tolyloxy)methyl)-1H-pyrazolo[3,4-d]pyrimidin-4-amine]	71%	53%	82%	–
Cc1ccc(OCc2nn(Cc3ccc([N+](=O)[O-])cc3)c3ncnc(N)c23)cc1 [Compound 28, 1-(4-Nitrobenzyl)-3-((p-tolyloxy)methyl)-1H-pyrazolo[3,4-d]pyrimidin-4-amine]	65%	34%	85%	–
Nc1ncnc2c1c(COc1ccccc1Cl)nn2Cc1ccc([N+](=O)[O-])cc1 [Compound 29, 3-((2-Chlorophenoxy)methyl)-1-(4-nitrobenzyl)-1H-pyrazolo[3,4-d]pyrimidin-4-amine]	34%	–	94%	–
Nc1ncnc2c1c(COc1cccc(Cl)c1)nn2Cc1ccc([N+](=O)[O-])cc1 [Compound 30, 3-((3-Chlorophenoxy)methyl)-1-(4-nitrobenzyl)-1H-pyrazolo[3,4-d]pyrimidin-4-amine]	52%	11%	93%	–
Nc1ncnc2c1c(COc1ccc(Cl)cc1)nn2Cc1ccc([N+](=O)[O-])cc1 [Compound 31, 3-((4-Chlorophenoxy)methyl)-1-(4-nitrobenzyl)-1H-pyrazolo[3,4-d]pyrimidin-4-amine]	60%	40%	94%	–
Cc1cc(N)c2cc(NC(=O)Nc3ccc4nc(C)cc(N)c4c3)ccc2n1 [NSC 12155]	–	–	–	ZIKV Reporter Assay Inhibition (%) at 10 µM ([6]; 10 µM): 68%; EC50 [6]: 2.18 µM; Titer Reduction Assay % at 8.5 µM ([1]; 8.5 µM): 72%; EC50 [1]: 7.34 µM; ZIKV Reporter Assay Viability (%) at 10 µM ([2]; 10 µM): 70%; CC50 [2]: 23 µM

Source: PMC9502836, “Zika Virus Inhibitors Based on a 1,3-Disubstituted 1H-Pyrazolo[3,4-d]pyrimidine-amine Scaffold” (Molecules, 2022)
